Where a name gives a salt, the structure may show the parent alone. Read-outs that look alike come from different tables or passages of the source.
Experiments:
Format in all cases: physicochemical
[1] = Angle of repose of 25HC3S salts
Procedure, shortened: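 About 2 g of salt powder was poured through a 7 mm inner-diameter tube into a 21.14 mm rubber O-ring, forming a cone of fixed diameter. Cone height was measured with calipers and the angle of repose was calculated from it. Flow was classified per USP<1174>.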

[2] = Appearance (color, clumping, flowability) of stored 25HC3S salts; conditions: 2-8° C.
[3] = Thermogravimetric analysis (TGA), weight loss
Procedure, shortened: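 Mettler-Toledo TGA/DSC3, calibrated with indium, tin and zinc, balance checked with calcium oxalate. Sample in a hermetically sealed aluminium pan with pierced lid, heated under nitrogen from ambient to 350° C at 10° C/min. Weight loss reported against sample temperature.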

[4] = Solid-state chemical stability of 25HC3S salts at 2-8° C., 60° C. and 80° C. (HPLC assay and degradation products); conditions: for % Impurities, Total / % Impurities, 25-HC: ND = Not Detected; for Overall physical and chemical stability (in words): 60° C.; for % Impurities, 25-HC: 25-Hydroxy-Cholesterol
Procedure, shortened: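 Crystalline 25HC3S salts (~25 mg powder per vial) stored at 2-8° C. or 80° C., pulled at 3 and 6 weeks; some 3-week 2-8° C. vials moved to 60° C. for 1 week. Dissolved in 100% methanol (sonication/vortexing, centrifugation or dilution), then HPLC against 25HC3S sodium standards (0.75-1.25 mg/mL) for assay and degradants.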

[5] = Final pH of the solubility sample solutions in aqueous media
Procedure, shortened: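 25HC3S salts shaken as excess-solid suspensions in aqueous media at room temperature (210 motions/min) for one day. Aliquots centrifuged at 12000 rpm for 12–15 min; clear supernatant assayed undiluted by HPLC.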

## C[C@H](CCCC(C)(C)O)[C@H]1CC[C@H]2[C@@H]3CC=C4C[C@@H](OS(=O)(=O)O)CC[C@]4(C)[C@H]3CC[C@]12C [Salt #14]
[1]
  Angle of Repose: 25.7 degrees
[1]; rounded whole number
  Angle of Repose, Rounded Whole Number: 26 degrees
[2]; 3 wk
  Appearance: White, free flowing powder with clumping
[2]; 5 wk
  Appearance: White, free flowing powder with clumping
[3]; 100° C. to […] C., partly decomposition
  Weight loss by TGA, 100° C. to […] C.: about 8.8%
[3]; to about 100° C.
  Weight loss by TGA to about 100° C.: about 1.5%
[4]; 2-8° C., 3 wk
  % Impurities, Total: 3.2%
  % Impurities, 25-HC: 0.3%
[4]; 2-8° C., 5 wk
  % Impurities, Total: 2.4%
  % Impurities, 25-HC: 0.3%
[4]; 2-8° C., 80° C.
  Overall physical and chemical stability (in words): physically and chemically stable
[4]; 2-8° C., 80° C., listed as lysine
  Overall physical and chemical stability (in words): relatively stable
[4]; 80° C., 3 wk
  % Impurities, 25-HC: 0.3%
  % Impurities, Total: 3.7%
[4]; 80° C., 5 wk
  % Impurities, 25-HC: 0.3%
  % Impurities, Total: 3.1%
[4]; 80° C.
  Stressed stability at 80° C. (in words): good, stressed stability
[4]; 80° C., 5 weeks
  Physical and chemical solid-state stability (comments): Stable after 5 weeks at 80 °C physically and chemically.
[4]; solid state, 2-8° C., 3 wk, read-out: Assay
  remaining at 504 h: 91.5%
[4]; solid state, 2-8° C., 5 wk, read-out: Assay
  remaining at 840 h: 94.2%
[4]; solid state, 80° C., 3 wk, vs 2-8° C., read-out: % Recovery
  remaining at 504 h: 101%
[4]; solid state, 80° C., 3 wk, read-out: Assay
  remaining at 504 h: 92.8%
[4]; solid state, 80° C., 5 weeks
  Stability after 5 weeks at 80° C. (in words): stable
[4]; solid state, 80° C., 5 wk, read-out: % Recovery, 2-8° C./5 wk vs 80° C./5 wk
  remaining at 840 h: 103%
[4]; solid state, 80° C., 5 wk, read-out: Assay
  remaining at 840 h: 96.9%
[5]; 0.9% sodium chloride (blank 5.8)
  pH of the solubility sample, 0.9% Sodium Chloride: 8.4
[5]; 5% dextrose (blank 4.7)
  pH of the solubility sample, 5% Dextrose: 7.5
[5]; 5% dextrose (medium pH 4.7)
  pH of solubility sample solution in 5% dextrose: 7.5
[5]; FaSSGF (blank 1.5, 1.6)
  pH of the solubility sample, FaSSGF: 1.6
[5]; FaSSIF (blank 6.5, 6.5)
  pH of the solubility sample, FaSSIF: 6.5
[5]; FeSSIF (blank 4.9, 5.0)
  pH of the solubility sample, FeSSIF: 5.0
[5]; water (blank 6.3)
  pH of the solubility sample, Water: 8.8

Source: US20260317367A1, “SALTS INCLUDING CRYSTALLINE SALTS OF 25-HYDROXY-CHOLEST-5-EN-3-SULFATE AND METHODS FOR PREPARING SAME” (Durect Corporation, priority 2022, published 2026)
